Test results from ChEMBL document CHEMBL5338783, “Discovery of an Anti-TNF-α 9-mer Peptide from a T7 Phage Display Library for the Treatment of Inflammatory Bowel Disease” (J Med Chem, 2023).
Active and inactive are the calls of the source. The rule behind the calls is not given here. Peptide text beside a SMILES is read from it.

Experiments:
[1] = system: RAW264.7; assay: Antiinflammatory activity in LPS-stimulated mouse RAW264.7 cells assessed as inhibition of JNK1/2 phosphorylation incubated for 3 hrs by Western blot analysis; assay type: functional, cell-based; details: dose 25-100 µM
[2] = system: Mus musculus; assay: Antiinflammatory activity against DSS-induced acute colitis in C57BL/6 mouse model assessed as decrease in JNK1/2 phosphorylation in colon tissue administered intraperitoneally daily for 7 days by Western blot analysis; assay type: functional, organism-based; details: dose 0.5-1 mg/kg, route ip, time 7.0 day
[3] = system: Mus musculus; assay: Antiinflammatory activity against DSS-induced acute colitis in C57BL/6 mouse model assessed as decrease in p65 phosphorylation in colon tissue administered intraperitoneally daily for 7 days by Western blot analysis; assay type: functional, organism-based; details: dose 0.5-1 mg/kg, route ip, time 7.0 day
[4] = target: T1, Tumor necrosis factor receptor superfamily member 1B (Homo sapiens) (UniProt P20333); assay: Inhibition of TNF-alpha (unknown origin) binding to TNFR2 by SPR analysis
T1 sequence (whole entry): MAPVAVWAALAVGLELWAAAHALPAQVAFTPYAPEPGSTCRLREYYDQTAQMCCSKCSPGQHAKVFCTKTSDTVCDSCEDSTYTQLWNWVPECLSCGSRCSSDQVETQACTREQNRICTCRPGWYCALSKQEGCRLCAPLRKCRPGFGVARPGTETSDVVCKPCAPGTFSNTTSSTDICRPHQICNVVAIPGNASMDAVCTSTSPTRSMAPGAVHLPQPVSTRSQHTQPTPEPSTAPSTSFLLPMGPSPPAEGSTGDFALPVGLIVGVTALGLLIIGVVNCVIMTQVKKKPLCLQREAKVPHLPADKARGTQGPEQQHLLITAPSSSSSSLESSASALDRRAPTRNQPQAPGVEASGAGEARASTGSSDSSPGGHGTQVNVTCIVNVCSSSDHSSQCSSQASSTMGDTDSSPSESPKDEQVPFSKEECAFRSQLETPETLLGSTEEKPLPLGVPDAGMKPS

[5] = target: Tumor necrosis factor (Homo sapiens, UniProt P01375); assay: Binding affinity to recombinant TNF-alpha (unknown origin) assessed as dissociation constant incubated for 10 mins by MST assay
[6] = system: Mus musculus; assay: Anti-colitis activity against DSS-induced acute colitis in C57BL/6 mouse model assessed as reversal of body weight loss at 0.5 to 1 mg/kg, ip daily for 11 days; assay type: functional, organism-based; details: dose 0.5-1 mg/kg, time 11.0 day
[7] = system: RAW264.7; assay: Antiinflammatory activity in mouse RAW264.7 cells assessed as decrease in LPS-stimulated TNF-alpha protein expression incubated for 3 hrs by flow cytometry; assay type: functional, cell-based; details: dose 25-100 µM
[8] = system: Mus musculus; assay: Anti-colitis activity against DSS-induced acute colitis in C57BL/6 mouse model assessed as reduction in colonic tissue damage at 0.5 to 1 mg/kg, ip daily for 7 days by H and E staining based analysis; assay type: functional, organism-based; details: dose 0.5-1 mg/kg, time 7.0 day
[9] = system: RAW264.7; assay: Antiinflammatory activity in mouse RAW264.7 cells assessed as decrease in LPS-stimulated IL-1beta mRNA level incubated for 3 hrs by RT-qPCR analysis; assay type: functional, cell-based; details: dose 25-100 µM
[10] = Toxicity in DSS-induced acute colitis in C57BL/6 mouse model assessed as animal survival at 0.5 to 1 mg/kg, ip daily for 11 days; assay type: organism-based; details: in vivo, 264 h, dose 0.5-1 mg/kg, time 11 day
[11] = system: Mus musculus; assay: Anti-colitis activity against DSS-induced acute colitis in C57BL/6 mouse model assessed as reduction in colon length at 0.5 to 1 mg/kg, ip daily for 11 days; assay type: functional, organism-based; details: dose 0.5-1 mg/kg, time 11.0 day
[12] = system: Mus musculus; assay: Antiinflammatory activity against DSS-induced acute colitis in C57BL/6 mouse model assessed as decrease in IkappaBalpha phosphorylation in colon tissue administered intraperitoneally daily for 7 days by Western blot analysis; assay type: functional, organism-based; details: dose 0.5-1 mg/kg, route ip, time 7.0 day
[13] = system: Mus musculus; assay: Antiinflammatory activity against DSS-induced acute colitis in C57BL/6 mouse model assessed as decrease in p38 phosphorylation in colon tissue administered intraperitoneally daily for 7 days by Western blot analysis; assay type: functional, organism-based; details: dose 0.5-1 mg/kg, route ip, time 7.0 day
[14] = system: Mus musculus; assay: Anti-colitis activity against DSS-induced acute colitis in C57BL/6 mouse model assessed as decrease in disease activity index at 0.5 to 1 mg/kg, ip daily for 7 days; assay type: functional, organism-based; details: dose 0.5-1 mg/kg, time 7.0 day
[15] = system: BMDM; assay: Antiinflammatory activity in LPS-stimulated mouse BMDM cells assessed as inhibition of MAPK signalling pathway incubated for 3 hrs by Western blot analysis; assay type: functional, cell-based; details: dose 25-100 µM
[16] = target: T2, Tumor necrosis factor receptor superfamily member 1A (Homo sapiens) (UniProt P19438); assay: Binding affinity to TNFR1 (unknown origin) at 488.3 to 500 uM incubated for 10 mins by MST assay; details: dose 488.3-500 µM
T2 sequence (whole entry): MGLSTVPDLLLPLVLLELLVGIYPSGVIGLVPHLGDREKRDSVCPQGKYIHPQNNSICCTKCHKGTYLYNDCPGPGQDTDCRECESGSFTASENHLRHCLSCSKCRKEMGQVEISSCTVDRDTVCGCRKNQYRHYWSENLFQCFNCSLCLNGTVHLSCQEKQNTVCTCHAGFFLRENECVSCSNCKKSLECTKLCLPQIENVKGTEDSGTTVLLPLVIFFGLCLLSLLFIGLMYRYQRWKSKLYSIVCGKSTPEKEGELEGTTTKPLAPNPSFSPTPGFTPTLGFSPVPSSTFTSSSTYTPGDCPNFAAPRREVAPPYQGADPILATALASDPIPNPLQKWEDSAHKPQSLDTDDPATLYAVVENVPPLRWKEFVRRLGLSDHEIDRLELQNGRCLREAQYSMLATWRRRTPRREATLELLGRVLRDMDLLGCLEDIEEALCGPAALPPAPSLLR

[17] = target: T1, Tumor necrosis factor receptor superfamily member 1B (Homo sapiens); assay: Binding affinity to TNFR2 (unknown origin) at 488.3 to 500 uM incubated for 10 mins by MST assay; details: dose 488.3-500 µM
[18] = system: Mus musculus; assay: Anti-colitis activity against DSS-induced acute colitis in C57BL/6 mouse model assessed as decrease in disease activity index at 1 mg/kg, ip daily for 7 days; assay type: functional; details: time 7 day
[19] = system: Mus musculus; assay: Anti-colitis activity against DSS-induced acute colitis in C57BL/6 mouse model assessed as […] in IFN-gamma mRNA level at 0.5 to 1 mg/kg, ip daily for 7 days by RT-qPCR analysis; assay type: functional, organism-based; details: dose 0.5-1 mg/kg, time 7.0 day
[20] = system: BMDM; assay: Antiinflammatory activity in mouse BMDM cells assessed as decrease in LPS-stimulated IL-6 mRNA level incubated for 3 hrs by RT-qPCR analysis; assay type: functional, cell-based; details: dose 25-100 µM
[21] = system: BMDM; assay: Antiinflammatory activity in LPS-stimulated mouse BMDM cells assessed as inhibition of NF-kappaB signalling pathway incubated for 3 hrs by Western blot analysis; assay type: functional, cell-based; details: dose 25-100 µM
[22] = system: BMDM; assay: Antiinflammatory activity in mouse BMDM cells assessed as decrease in LPS-stimulated TNF-alpha mRNA level incubated for 3 hrs by RT-qPCR analysis; assay type: functional, cell-based; details: dose 25-100 µM

Tumor necrosis factor, sequence (P01375 whole entry): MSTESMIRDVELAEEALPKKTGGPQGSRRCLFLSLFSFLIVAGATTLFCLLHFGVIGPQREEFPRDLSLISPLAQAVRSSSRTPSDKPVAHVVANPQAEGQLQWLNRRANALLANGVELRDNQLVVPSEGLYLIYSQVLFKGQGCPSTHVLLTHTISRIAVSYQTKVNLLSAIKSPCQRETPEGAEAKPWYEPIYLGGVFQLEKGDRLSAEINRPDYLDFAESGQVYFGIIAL

## C[C@H](N)C(=O)N[C@@H](CS)C(=O)N[C@@H](Cc1cnc[nH]1)C(=O)N[C@@H](C)C(=O)N[C@@H](Cc1c[nH]c2ccccc12)C(=O)N[C@@H](C)C(=O)N1CCC[C@H]1C(=O)N[C@H](C(=O)N[C@@H](CCCNC(=N)N)C(=O)O)[C@@H](C)O (H-ACHAWAPTR-OH)
[1]
  Activity: Dose-Dependent Effect
[2]
  Activity: Dose-Dependent Effect
[3]
  Activity: Dose-Dependent Effect
[4]
  inhibition: Active
[5]
  Kd: 5.14 µM
[6]
  Activity: Active
[7]
  Activity: Dose-Dependent Effect
[8]
  Activity: Active
[9]
  Activity: Active
[10]
  Activity: Non-Toxic
[11]
  Activity: Active
[12]
  Activity: Dose-Dependent Effect
[13]
  Activity: Dose-Dependent Effect
[14]
  Activity: Active
[15]
  Activity: Dose-Dependent Effect
[16]
  Activity: inactive
[17]
  Activity: inactive
[18]
  Activity: -1.25
[19]
  Activity: Active
[20]
  Activity: Dose-Dependent Effect
[21]
  Activity: Dose-Dependent Effect
[22]
  Activity: Dose-Dependent Effect
